# In patent US20240051960A1, “SPIROCYCLIC IMIDAZOLIDINONES AND IMIDAZOLIDINEDIONES FOR TREATMENT OF LIGHT CHAIN AMYLOIDOSIS” (Protego Biopharma, Inc., priority 2021, published 2024):
# System: Recombinant amyloidogenic full length light chain protein WIL-FL T46L
# Assay: Differential Scanning Fluorimetry (thermal shift) assay
# Assay type: binding
# Conditions: protein and compounds incubated at RT for 30 min before adding the dye, Thermal Shift Protein Stability Kit, 96-well plates
# Procedure: Differential Scanning Fluorimetry Assay
# The stabilization effects the compounds have on the immunoglobulin light chain protein is quantitively measured using a thermal shift assay. Recombinant amyloidogenic full length light chain protein WIL-FL T46L is produced in E. coli, purified, and used in the assay. The Thermal Shift Protein Stability Kit from Biotium is used and the assay is done in 96-well Plates following the manufacture's instructions. The protein and compounds are incubated at RT for 30 min before adding the dye and subjected to the thermal shift assay. The thermal stability of each sample is then determined using standard curve fitting methods.
# Compounds that induce shifts in the ranges below are listed in the table below: • 0-0.5° C.=* • >0.5-1° C.=** • >1-1.5° C.=*** • >1.5° C.=****
structure (smiles),measurement,value
O=C(CN1C(=O)NC2(CCN(c3c[nH]c(=O)[nH]c3=O)CC2)C1=O)Nc1ccc(C(F)(F)F)cc1 [Compound 90],Thermal Shift,**** (>1.5° C.=****)
